Assay results taken from publication PMC7845594, “Novel Immune Modulators Enhance Caenorhabditis elegans Resistance to Multiple Pathogens” (mSphere, 2021).

What was measured:
C. elegans transcriptome = test: Transcriptome profiling (Affymetrix microarrays), differentially expressed genes; format: in vivo, Caenorhabditis elegans
Procedure: To gain additional insight into the effect of LK molecules on C. elegans, young-adult, wild-type worms were treated with each drug at 100 µM for 8 h in the absence of pathogen. RNA was collected, and transcriptome profiling was performed.
Data were determined using Affymetrix microarrays, as described in Materials and Methods. Download Table S3, XLSX file, 0.07 MB.
Transcriptome profiling was performed on ∼6,000 wild-type, young adult worms incubated with either LK molecules or DMSO for 8 h. RNA isolation was performed using TRIzol extraction, followed by cleanup using RNeasy columns according to the manufacturer’s protocol. Each condition was analyzed in triplicate. Microarray data have been deposited in the GEO database, accession number GSE137516. […] Clustering and generation of the heat map was performed using Cluster 3.0 ([98]) and Treeview ([99]), respectively. Fold change of genes were normalized to average fold change of that gene over all clustered conditions. Genes and conditions were clustered using Euclidean distance and average linkages. […] Microarray data for non-LK molecules were collected from GEO omnibus. WormEXP was used as a secondary method for confirming statistical significance of potential pathways stimulated by each of the LK molecules ([100]). Gene ontologies were generated using DAVID ([101], [102]).

glp-4(bn2) worms = test: Longevity (life span) assay; settings: 50 μM in NGM, E. coli OP50, Fig 3A
Procedure: To test the long-term toxicity of the hit compounds, life span assays were carried out by placing sterile, young adult glp-4(bn2) worms on NGM (standard nematode growth media, defined in Materials and Methods) seeded with Escherichia coli OP50. […] Sterile worms were used to eliminate the need to transfer worms between plates during life span assays, and we elected to use glp-4(bn2) to induce sterility instead of using wild-type worms sterilized with 5-fluoro-2′-deoxyuridine (FUDR) because the interaction of the compounds could generate artifacts during the long course of life span experiments.
Worms were scored daily by prodding. […] The viability was normalized to a DMSO solvent control. […] Error bars represent standard error of the mean.
Worms were picked onto agar plates seeded with 50 µl of concentrated E. coli OP50. Compounds were added to liquid agar before pouring plates. Worms were scored every day for death by prodding with a platinum wire. Worms that escaped the plate or died on the wall of the plate were censored. Each compound was tested in at least three biological replicates, each including 50 to 70 worms.

For CN(C)/N=N/c1ccc(-c2cn(Cc3ccccc3)cn2)cc1 [LK38], the “Fold Change” value (C. elegans transcriptome; Gene Y43F8B.2, Affy_ID 172568_x_at, downregulated genes) was 0.4361, the “Fold Change” value (C. elegans transcriptome; Gene Y44A6C.1, Affy_ID 182843_at, downregulated genes) was 0.4118 and the “Fold Change” value (C. elegans transcriptome; Gene Y45F10A.5, Affy_ID 184558_at, downregulated genes) was 0.1874. For the same molecule, the “Fold Change” value (C. elegans transcriptome; Gene Y46G5A.11, Affy_ID 184716_at, downregulated genes) was 0.4392, the “Fold Change” value (C. elegans transcriptome; Gene Y48A6B.7, Affy_ID 193926_at, downregulated genes) was 0.1656 and the “Fold Change” value (C. elegans transcriptome; Gene Y48A6B.7, Affy_ID 193927_s_at, downregulated genes) was 0.1715. The “Fold Change” value (C. elegans transcriptome; Gene Y51A2D.13, Affy_ID 192992_at, downregulated genes) was 0.2626, the “Fold Change” value (C. elegans transcriptome; Gene Y51H4A.7, Affy_ID 180145_s_at, downregulated genes) was 0.364 and the “Fold Change” value (C. elegans transcriptome; Gene Y59E9AR.7, Affy_ID 172629_x_at, downregulated genes) was 0.2101. The “Fold Change” value (C. elegans transcriptome; Gene Y59H11AM.1, Affy_ID 172113_x_at, downregulated genes) was 0.292, the “Fold Change” value (C. elegans transcriptome; Gene Y71H2AL.1, Affy_ID 177190_at, downregulated genes) was 0.3481 and the “Fold Change” value (C. elegans transcriptome; Gene Y105C5A.13, Affy_ID 172627_x_at, downregulated genes) was 0.08697. The “Fold Change” value (C. elegans transcriptome; Gene Y105C5A.24, Affy_ID 187121_at, downregulated genes) was 0.3583, the “Fold Change” value (C. elegans transcriptome; Gene Y119D3B.13, Affy_ID 175112_s_at, downregulated genes) was 0.1938 and the “Fold Change” value (C. elegans transcriptome; Gene Y119D3B.13, Affy_ID 176131_at, downregulated genes) was 0.2809. For the same molecule, the “Fold Change” value (C. elegans transcriptome; Gene ZC416.6, Affy_ID 188470_s_at, downregulated genes) was 0.4112, the “Fold Change” value (C. elegans transcriptome; Gene ZK112.1, Affy_ID 175995_at, downregulated genes) was 0.3894 and the “Fold Change” value (C. elegans transcriptome; Gene ZK131.4, Affy_ID 190307_s_at, downregulated genes) was 0.355. The “Fold Change” value (C. elegans transcriptome; Gene ZK131.7, Affy_ID 172871_x_at, downregulated genes) was 0.3915, the “Fold Change” value (C. elegans transcriptome; Gene ZK354.1, Affy_ID 172927_x_at, downregulated genes) was 0.2349 and the “Fold Change” value (C. elegans transcriptome; Gene ZK1248.4, Affy_ID 172734_x_at, downregulated genes) was 0.2783. For the same molecule, the “Fold Change” value (C. elegans transcriptome; Gene ZK1248.6, Affy_ID 172887_x_at, downregulated genes) was 0.1775, the “Fold Change” value (C. elegans transcriptome; Gene ZK1251.6, Affy_ID 172938_x_at, downregulated genes) was 0.2909 and the “Fold Change” value (C. elegans transcriptome; upregulated gene Y19D10A.9, Affy_ID 180592_s_at) was 3.58. The “Fold Change” value (C. elegans transcriptome; upregulated gene Y22F5A.4, Affy_ID 182989_at) was 2.438, the “Fold Change” value (C. elegans transcriptome; upregulated gene Y22F5A.5, Affy_ID 183028_s_at) was 6.765 and the “Fold Change” value (C. elegans transcriptome; upregulated gene Y37D8A.6, Affy_ID 181665_at) was 2.8924. For the same molecule, the “Fold Change” value (C. elegans transcriptome; upregulated gene Y37E3.16, Affy_ID 173045_at) was 4.522, the “Fold Change” value (C. elegans transcriptome; upregulated gene Y38E10A.14, Affy_ID 175449_s_at) was 26.3223 and the “Fold Change” value (C. elegans transcriptome; upregulated gene Y39G10AR.10, Affy_ID 176486_at) was 4.567. For the same molecule, the “Fold Change” value (C. elegans transcriptome; upregulated gene Y40B10A.6, Affy_ID 176851_at) was 66.4819, the “Fold Change” value (C. elegans transcriptome; upregulated gene Y41C4A.16, Affy_ID 194230_x_at) was 2.891 and the “Fold Change” value (C. elegans transcriptome; upregulated gene Y41D4B.10, Affy_ID 176055_at) was 10.2277. For the same molecule, the “Fold Change” value (C. elegans transcriptome; upregulated gene Y41D4B.16, Affy_ID 176044_at) was 4.224, the “Fold Change” value (C. elegans transcriptome; upregulated gene Y45F10C.4, Affy_ID 186062_at) was 3.88 and the “Fold Change” value (C. elegans transcriptome; upregulated gene Y45G12C.2, Affy_ID 187084_at) was 31.3356. For the same molecule, the “Fold Change” value (C. elegans transcriptome; upregulated gene Y46C8AL.2, Affy_ID 172184_x_at) was 22.6612, the “Fold Change” value (C. elegans transcriptome; upregulated gene Y46G5A.4, Affy_ID 187467_s_at) was 2.088 and the “Fold Change” value (C. elegans transcriptome; upregulated gene Y47D3B.10, Affy_ID 175803_at) was 15.9397. For the same molecule, the “Fold Change” value (C. elegans transcriptome; upregulated gene Y47D7A.1, Affy_ID 176618_at) was 2.89, the “Fold Change” value (C. elegans transcriptome; upregulated gene Y47H9C.5, Affy_ID 191065_s_at) was 3.429 and the “Fold Change” value (C. elegans transcriptome; upregulated gene Y51H7C.1, Affy_ID 186349_at) was 10.9287. The “Fold Change” value (C. elegans transcriptome; upregulated gene Y53G8B.2, Affy_ID 184714_s_at) was 6.111, the “Fold Change” value (C. elegans transcriptome; upregulated gene Y54G2A.6, Affy_ID 173144_at) was 2.211 and the “Fold Change” value (C. elegans transcriptome; upregulated gene Y55B1AR.1, Affy_ID 187047_at) was 6.195. For the same molecule, the “Fold Change” value (C. elegans transcriptome; upregulated gene Y57A10A.23, Affy_ID 187073_at) was 4.734, the “Fold Change” value (C. elegans transcriptome; upregulated gene Y66D12A.24, Affy_ID 175124_at) was 2.206 and the “Fold Change” value (C. elegans transcriptome; upregulated gene Y77E11A.2, Affy_ID 187013_at) was 2.874. The “Fold Change” value (C. elegans transcriptome; upregulated gene Y105C5B.15, Affy_ID 186799_at) was 3.08, the “Fold Change” value (C. elegans transcriptome; upregulated gene Y105C5B.9, Affy_ID 185162_at) was 4.4277 and the “Fold Change” value (C. elegans transcriptome; upregulated gene Y106G6D.6, Affy_ID 185498_at) was 6.567. The “Fold Change” value (C. elegans transcriptome; upregulated gene ZC155.1, Affy_ID 173222_s_at) was 2.443, the “Fold Change” value (C. elegans transcriptome; upregulated gene ZK455.1, Affy_ID 193891_at) was 2.648 and the “Fold Change” value (C. elegans transcriptome; upregulated gene ZK455.7, Affy_ID 193924_at) was 3.307. The “Fold Change” value (C. elegans transcriptome; upregulated gene ZK512.7, Affy_ID 186714_s_at) was 3.427, the “Fold Change” value (C. elegans transcriptome; upregulated gene ZK637.13, Affy_ID 173475_s_at) was 2.9018 and the “Fold Change” value (C. elegans transcriptome; upregulated gene ZK770.3, Affy_ID 180366_s_at) was 3.303. The “Fold Change” value (C. elegans transcriptome; upregulated gene ZK899.2, Affy_ID 178376_s_at) was 3.754 and the “TD50 (time to 50% death), life span” value (glp-4(bn2) worms) was 7.6 days.
